According to US7071203B2, “Pharmaceutically acceptable salts of 20(s)-camptothecins” (Dr. Reddy's Laboratories Limited, priority 2001, dated 2006):
Structures can show the parent of a compound that is named as a salt. Where two headings read alike, the source gives them in different places.

What was measured:
[1] = Single dose oral pharmacokinetic studies; type: in vivo, Male Swiss Albino Mice
Protocol: Male Swiss Albino Mice (20–30 g) were used in the experiments. The animals were maintained under standard laboratory conditions and had free access to feed and water ad libitum. Before experimentation animals were fasted overnight (˜15 h) during which they had free access to water ad libitum.
An amount equivalent to 10 mg of drug was weighed accurately and transferred into a clean mortar and triturated to obtain a fine powder. To this 500 μl of DMSO (10%) was added to obtain a clear solution. To this 4.5 ml of sodium carboxy methyl cellulose (sodium CMC) was added to make up the volume to 5 ml. Based on the animal weight appropriate volume (body weight in grams×10=no. of μl of dose to be given) of the prepared solution was administered through oral gavage.
After dosing, at designated time points (0.5, 1, 2, 3, 5, 8 and 12 h) 100 μl of blood was collected from retro orbital plexus into 0.5 ml eppendorff tubes containing EDTA (5 μl of 200 mg/ml solution in Milli Q water). Blood was centrifuged at 12,800 rpm for 2 min and plasma was separated and immediately taken for analysis, without delay, in order to estimate both lactone and carboxylate forms of the compound.
50 μl plasma was transferred into a clean 2 ml micro centrifuge tube. To this ice cold methanol was added (450 μl) and vertex mixed for 15 sec to extract the compound. These contents were centrifuged for 2 min at 12,800 rpm dry centrifuge tube. Clear supernatant was separated in to a 300 μl of auto sampler vial maintained at 4° C. and 20 μl of this was injected into HPLC column. HPLC Conditions:
HPLC system (Shimadzu) consisted of system controller (SCL-10AVP), Isocratic pump (LC-10ATVP), auto sampler (SIL-10ADVP), fluorescence detector (RF-10AXL) and column oven at 25° C. (CTO-1OASVP) was controlled by Class-VP software. Sample was eluted through column (Supelcosil-LC318, 5μ, 4.6×250 mm, 300° A) with mobile phase [1% TEAA (pH=5.5):Acetonitrile:MeOH::80:15:5) pumped at 1.0 ml/min flow rate and eluent was detected using fluorescence detector set at Ex. 370 nm/Em. 537 nm. The approx. RTs were carboxylate (CA1=4.1 min, CA2=4.8 min) and lactone (LA1=7.9 min, LA2=11.6 min).
For the determination of drug concentration, peak area ratios of the drug to internal standard versus the concentration (range: 0.05–10 μg/ml) for both carboxylate and lactone forms were plotted separately and linear regression was applied using software “Sigma Plot” (Jandel Scientific version, 2.0, USA). Correlation coefficients (r^2) of 0.99 or better were obtained.
Pharmacokinetic parameters were calculated for both carboxylate and lactone forms separately by non-compartmental model analysis. The peak plasma concentration (Cmax) and the corresponding time (Tmax) were directly obtained from the raw data. The area under the plasma concentration versus time curve up to the last quantifiable time point, AUC(0-t) was obtained by the linear and log-linear trapezoidal summation. The AUC(0-t) extrapolated to infinity (i.e., AUC (0-∞)) by adding the quotient of Clast/Kel, where Clast represents the last measurable time concentration and Kel represents the apparent terminal rate constant. Kel was calculated by the linear regression of the log-transformed concentrations of the drug in the terminal phase. The half-life of the terminal elimination phase was obtained using the relationship t1/2=0.693/ Kel.

[2] = tested on: SW-620; assay: Sulforhodamine B growth inhibition, colon cell line SW-620; type: cell-based, human; conditions: COLON: SW-620, 48 h
Protocol: (§1) Each test compound was screened against a battery of cell lines representing eight different types of cancers. In a typical procedure, 1×10^4 cells were seeded into each well of 96 well plate in 100 μL volume of RPMI 1640 medium containing antibiotics and 10% FCS.
(§2) The plates were incubated at 37° C. in presence of CO2. After 24 h, test compounds were evaluated at five 10-fold dilutions ranging from 100 to 0.01 μM. To each test well 100 μL of test compound solution was added and medium with vehicle was added to control wells and the plates were further incubated. After 48 h of incubation, plates were terminated by Sulforhodamine B method.
(§3) The optical density, which is proportional to protein mass, is then read by automated spectrophotometric plate reader at a wavelength of 515 nm. Readings were transferred to a microcomputer and mean 50% Growth Inhibition (GI50) and mean Total Growth Inhibition were calculated.

[3] = tested on: MCF-7/ADR; assay: Sulforhodamine B growth inhibition, breast cell line MCF-7/ADR; type: cell-based, human; conditions: 48 h; for GI50: Homo sapiens, NCI/ADR-RES, read-out: Growth Inhibition (GI 50)
Protocol: as §1, §2, §3

[4] = tested on: H 522; assay: Sulforhodamine B growth inhibition, lung cell line H 522; type: cell-based, human
Protocol: as §1, §2, §3

[5] = tested on: SKOV-3; assay: Sulforhodamine B growth inhibition, ovarian cell line SKOV-3; type: cell-based, human
Protocol: as §1, §2, §3

[6] = tested on: U251; assay: Sulforhodamine B growth inhibition, CNS cell line U251; type: cell-based, human
Protocol: as §1, §2, §3

[7] = tested on: A 498; assay: Sulforhodamine B growth inhibition, renal cell line A 498; type: cell-based, human
Protocol: as §1, §2, §3

[8] = tested on: PA-1; assay: Sulforhodamine B growth inhibition, ovarian cell line PA-1; type: cell-based, human; conditions: OVARIAN: PA-1, 48 h
Protocol: as §1, §2, §3

[9] = tested on: UACC-62; assay: Sulforhodamine B growth inhibition, melanoma cell line UACC-62; type: cell-based, human; conditions: for GI50: Homo sapiens, read-out: Growth Inhibition (GI 50)
Protocol: as §1, §2, §3

[10] = tested on: PC-3; assay: Sulforhodamine B growth inhibition, prostate cell line PC-3; type: cell-based, human; conditions: PROSTATE: PC-3, 48 h
Protocol: as §1, §2, §3

[11] = tested on: MCF 7; assay: Sulforhodamine B growth inhibition, breast cell line MCF 7; type: cell-based, human
Protocol: as §1, §2, §3

[12] = tested on: DU-145; assay: Sulforhodamine B growth inhibition, prostate cell line DU-145; type: cell-based, human; conditions: for GI50: Homo sapiens, read-out: Growth Inhibition (GI 50)
Protocol: as §1, §2, §3

[13] = tested on: OVCAR-8; assay: Sulforhodamine B growth inhibition, ovarian cell line OVCAR-8; type: cell-based, human; conditions: OVARIAN: OVCAR-8, 48 h; for GI50: Homo sapiens, read-out: Growth Inhibition (GI 50)
Protocol: as §1, §2, §3

[14] = tested on: SF-268; assay: Sulforhodamine B growth inhibition, CNS cell line SF-268; type: cell-based, human; conditions: CNS: SF-268, 48 h; for GI50: Homo sapiens, read-out: Growth Inhibition (GI 50)
Protocol: as §1, §2, §3

[15] = tested on: HOP-62; assay: Sulforhodamine B growth inhibition, lung cell line HOP-62; type: cell-based, human; conditions: LUNG: HOP-62, 48 h; for GI50: Homo sapiens, read-out: Growth Inhibition (GI 50)
Protocol: as §1, §2, §3

[16] = tested on: ACHN; assay: Sulforhodamine B growth inhibition, renal cell line ACHN; type: cell-based, human; conditions: 48 h; for GI50: Homo sapiens, read-out: Growth Inhibition (GI 50)
Protocol: as §1, §2, §3

[17] = Lactone, single oral dose, mice, plasma, n = 3
[18] = male, Swiss Albino, mouse, in vivo, po
[19] = Homo sapiens, read-out: Growth Inhibition (GI 50)
[20] = BREAST: MCF-7/ADR, Sulforhodamine B
[21] = MELANOMA: UACC-62, 48 h, Sulforhodamine B
[22] = PROSTATE: DU-145, 48 h, Sulforhodamine B

In the case of `CC[C@@]1(O)C(=O)OCc2c1cc1n(c2=O)C(OCCF)c2cc3c(CN(C)C)c(O)ccc3nc2-1` (stereo partly drawn) [Example 3, 10-Hydroxy-9-N,N-dimethylaminomethyl-5-(2′-fluoroethoxy)-20(S)-camptothecin hydrochloride], the Kel [1, 17] was 0.19 h⁻¹, the “T1/2β(4,6,8h)^@” value [1, 17] was 422 min and the AUC(0-inf) [1, 18] was 9.74 µM·h. The AUC(0-t) [1, 18] was 6.1 µM·h, the “AUC(0–t)” value [1, 18] was 11.05 µM·h and the “AUC(0–∞)” value [1, 18] was 15.14 µM·h. The Tmax [1, 18] was 15 min, the “Total Growth Inhibition (TGI)” value [2] was >100 µM and the GI50 [2, 19] was 60 µM. The “Total Growth Inhibition (TGI)” value [3, 20] was >100 µM, the GI50 [3, 20] was 8 µM and the GI50 ([4]; Homo sapiens, NCI-H522, LUNG: H 522, 48 h, read-out: Growth Inhibition (GI 50)) was 0.9 µM. The “Total Growth Inhibition (TGI)” value ([4]; LUNG: H 522, 48 h) was 90.0 µM, the GI50 ([5]; Homo sapiens, SK-OV-3, OVARIAN: SKOV-3, 48 h, read-out: Growth Inhibition (GI 50)) was 6 µM and the “Total Growth Inhibition (TGI)” value ([5]; OVARIAN: SKOV-3, 48 h) was 40.0 µM. For the same compound, the “Total Growth Inhibition (TGI)” value ([6]; 48 h) was >100 µM, the GI50 ([6]; Homo sapiens, U-251, 48 h, read-out: Growth Inhibition (GI 50)) was 1.5 µM and the GI50 ([7]; Homo sapiens, A498, RENAL: A 498, 48 h, read-out: Growth Inhibition (GI 50)) was 0.7 µM. The “Total Growth Inhibition (TGI)” value ([7]; RENAL: A 498, 48 h) was 15.0 µM, the GI50 [8, 19] was 1 µM and the “Total Growth Inhibition (TGI)” value [8] was 5.0 µM. For the same compound, the GI50 [9, 21] was 1.5 µM, the “Total Growth Inhibition (TGI)” value [9, 21] was 8.0 µM and the GI50 [10, 19] was 9 µM. The “Total Growth Inhibition (TGI)” value [10] was >100 µM, the “Total Growth Inhibition (TGI)” value ([11]; BREAST: MCF 7, 48 h) was 10.0 µM and the GI50 ([11]; Homo sapiens, MCF7, BREAST: MCF 7, 48 h, read-out: Growth Inhibition (GI 50)) was 7.5 µM. For the same compound, the GI50 [12, 22] was 4 µM and the “Total Growth Inhibition (TGI)” value [12, 22] was >100 µM.

For `CC[C@@]1(O)C(=O)OCc2c1cc1n(c2=O)C(O)c2cc3c(CN(C)C)c(O)ccc3nc2-1` (stereo partly drawn) [Example 1, 10-Hydroxy-9-N,N-dimethylaminomethyl-5-hydroxy-20(S)-camptothecin hydrochloride], the “Total Growth Inhibition (TGI)” value [3, 20] was 0.9 µM, the GI50 [3] was 0.25 µM and the GI50 [13] was 0.5 µM. For the same compound, the “Total Growth Inhibition (TGI)” value [13] was >100 µM, the “Total Growth Inhibition (TGI)” value [14] was 90.0 µM and the GI50 [14] was 0.55 µM. For the same compound, the GI50 [15] was 0.6 µM, the “Total Growth Inhibition (TGI)” value [15] was 25.0 µM and the “Total Growth Inhibition (TGI)” value [16] was 1.0 µM. The GI50 [16] was 0.4 µM, the GI50 ([9]; UACC-62, 48 h) was 0.7 µM and the “Total Growth Inhibition (TGI)” value [9, 21] was 4.5 µM. The GI50 ([12]; DU-145, 48 h) was 0.4 µM and the “Total Growth Inhibition (TGI)” value [12, 22] was 0.8 µM.

With `CC[C@@]1(O)C(=O)OCc2c1cc1n(c2=O)C(OCCO)c2cc3c(CN(C)C)c(O)ccc3nc2-1` (stereo partly drawn) [Example 2, 10-Hydroxy-9-N,N-dimethylaminomethyl-5-(2′-hydroxyethoxy)-20(S)-camptothecin hydrochloride] the “Total Growth Inhibition (TGI)” value [3, 20] was 50.0 µM, the GI50 [3] was 7.5 µM and the GI50 [13] was 1 µM. The “Total Growth Inhibition (TGI)” value [13] was 80.0 µM, the “Total Growth Inhibition (TGI)” value [14] was >100 µM and the GI50 [14] was 7.5 µM. For the same compound, the GI50 [15] was 8 µM, the “Total Growth Inhibition (TGI)” value [15] was >100 µM and the “Total Growth Inhibition (TGI)” value [16] was 40.0 µM. For the same compound, the GI50 [16] was 4 µM, the GI50 ([9]; UACC-62, 48 h) was 6 µM and the “Total Growth Inhibition (TGI)” value [9, 21] was 6.0 µM. The GI50 ([12]; DU-145, 48 h) was 5.5 µM and the “Total Growth Inhibition (TGI)” value [12, 22] was 25.0 µM.
